Experimental data from patent US9034886B2, “4-aminoquinazoline derivatives and uses thereof” (Shanghai Institute of Pharmaceutical Industry, priority 2011, dated 2015).
Read-outs that look alike come from different tables or passages of the source.

Experiments:
[1] = test system: MDA-MB-435s human breast cancer cells; assay: In vitro anti-proliferative effect, CCK-8 method, MDA-MB-435s; format: cell-based; conditions: for inhibition at 10 µM / inhibition at 100 µM: Homo sapiens, MDA-MB-435S
How it was run: (§1)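 Percent growth inhibition was read by CCK-8 assay after exposure to two concentrations, 100 μM and 10 μM.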

[2] = test system: PC-3 human prostate cancer; assay: In vitro anti-proliferative effect, CCK-8 method, PC-3; format: cell-based
How it was run: as §1

[3] = test system: A549 human lung cancer cells; assay: In vitro anti-proliferative effect, CCK-8 method, A549; format: cell-based
How it was run: as §1

[4] = Preliminary pharmacokinetics; conditions: in vivo, rat
HDAC1 = HDAC1 (Homo sapiens (Human), UniProt Q13547); assay: In vitro inhibition of subtype HDAC1 (HDAC1 Inhibitor Drug Screening Kit, Biovision); format: biochemical; conditions: for inhibition at 1 µM / inhibition at 10 µM: read-out: % Inhibition towards HDAC1
Method: The in vitro inhibitory activities of the compounds towards the subtype HDAC1 were tested according to the instructions in the HDAC1 Inhibitor Drug Screening Kit (Biovision).
(1) The compounds to be tested were each individually prepared as 10 μM and 1 μM solutions and their inhibitory activities at these concentrations were tested.
Each dilution sample was placed in two wells and the enzyme inhibition IC50 of the compound was tested.

[5] = test system: K562 human chronic myelogenous leukemia cells; assay: In vitro anti-proliferative effect, CCK-8 method, K562; format: cell-based; conditions: for IC50 / inhibition at 10 µM / inhibition at 100 µM: Homo sapiens, K562
How it was run: (§2)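 Percent growth inhibition, measured with CCK-8, in Hut78 and K562 leukemia cells at two compound concentrations, 10 μM and 100 μM.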

HDACs = assay: In vitro inhibition of HDACs (HDAC Inhibitor Drug Screening Kit, Biovision K340-100); format: biochemical
Method: The in vitro inhibitory activities of the compounds towards HDACs were tested according to the instructions in the HDAC Inhibitor Drug Screening Kit (Biovision/Catalog #K340-100).
(1) The compounds to be tested were each individually prepared as 2 mM, 200 μM and 40 μM solutions and their inhibitory activities at these concentrations were tested.

[6] = test system: Hep3B2.1-7 human liver cancer cells; assay: In vitro anti-proliferative effect, CCK-8 method, Hep3B; format: cell-based
How it was run: as §1

[7] = test system: Hut78 T lymphocytic leukemia cells; assay: In vitro anti-proliferative effect, CCK-8 method, Hut78; format: cell-based; conditions: for inhibition at 10 µM / inhibition at 100 µM: read-out: Hut-78 (inhibition %)
How it was run: as §2

[8] = test system: PANC-1 human pancreatic cancer cells; assay: In vitro anti-proliferative effect, CCK-8 method, PANC-1; format: cell-based; conditions: for inhibition at 10 µM / inhibition at 100 µM: Homo sapiens, PANC-1
How it was run: as §1

[9] = Maximum tolerance dose through intragastrical administration; format: in vivo; conditions: mice, administrated intragastrically
How it was run: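 ICR mice (8˜20 g, both sexes, 10 per group) fasted 6 h, then dosed once intragastrically at 0.3 ml/10 g. Physical signs and deaths recorded at 1, 2 and 4 h, then daily with body weight over 14 days; dead animals necropsied with pathology on suspicious organs.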

[10] = test system: Colo320 human colorectal cancer cell lines; assay: In vitro anti-proliferative effect, CCK-8 method, Colo320; format: cell-based
How it was run: as §1

[11] = test system: Jurkat E6-1 human T-cell lymphoma; assay: In vitro anti-proliferative effect, CCK-8 method, Jurkat E6-1; format: cell-based
How it was run: as §1

human PC-3 tumors = assay: Human PC-3 tumors transplanted in nude mice; format: in vivo; conditions: 50 mg/kg; for deaths, PC-3 model: 8 mice in each group
hERG potassium channel = hERG potassium channel (Homo sapiens (Human), UniProt Q12809); assay: Effects on hERG potassium channel; format: cell-based; conditions: for inhibition at 10 µM: human, hERG potassium current, read-out: Maximum inhibition percentage at 10 μM (%); for IC50: read-out: Half inhibition concentration for the effect on hERG potassium current, IC50
human A549 tumors = assay: Human A549 tumors transplanted in nude mice; format: in vivo; conditions: 50 mg/kg; for tumor inhibition %, A549 (lung cancer) / deaths, A549 model: nude mice; for deaths, A549 model: 8 mice in each group
[12] = Homo sapiens, PC-3 cell strain, compound at 10 μM, CCK-8 method
[13] = Homo sapiens, PC-3 cell strain, compound at 100 μM, CCK-8 method
[14] = iv, 2 mg/kg, i.v., read-out: Intravenous half-life (converted)
[15] = oral, read-out: Oral half-life (converted)
[16] = Homo sapiens, Hep3B cell strain, compound at 10 μM, CCK-8 method
[17] = Homo sapiens, Hep3B cell strain, compound at 100 μM, CCK-8 method
[18] = Homo sapiens, COLO 320, Colo320 cell strain, compound at 10 μM, CCK-8 method
[19] = Homo sapiens, COLO 320, Colo320 cell strain, compound at 100 μM, CCK-8 method
[20] = Homo sapiens, Jurkat E6.1, 10 μM
[21] = Homo sapiens, Jurkat E6.1, 100 μM

HDAC1, sequence (Q13547 whole entry): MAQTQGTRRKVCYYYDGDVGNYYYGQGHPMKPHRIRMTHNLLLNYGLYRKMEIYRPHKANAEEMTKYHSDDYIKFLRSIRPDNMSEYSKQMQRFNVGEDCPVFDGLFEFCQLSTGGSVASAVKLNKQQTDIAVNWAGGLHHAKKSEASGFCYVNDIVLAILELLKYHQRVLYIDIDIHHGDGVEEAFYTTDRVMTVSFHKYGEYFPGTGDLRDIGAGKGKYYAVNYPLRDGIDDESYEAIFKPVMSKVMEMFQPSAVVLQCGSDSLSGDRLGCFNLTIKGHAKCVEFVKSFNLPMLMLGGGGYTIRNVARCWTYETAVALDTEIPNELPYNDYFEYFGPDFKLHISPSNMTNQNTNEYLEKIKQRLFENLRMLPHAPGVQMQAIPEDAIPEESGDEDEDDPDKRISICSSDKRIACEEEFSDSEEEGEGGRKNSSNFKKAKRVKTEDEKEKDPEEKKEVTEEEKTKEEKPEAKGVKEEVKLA
hERG potassium channel, sequence (Q12809 whole entry): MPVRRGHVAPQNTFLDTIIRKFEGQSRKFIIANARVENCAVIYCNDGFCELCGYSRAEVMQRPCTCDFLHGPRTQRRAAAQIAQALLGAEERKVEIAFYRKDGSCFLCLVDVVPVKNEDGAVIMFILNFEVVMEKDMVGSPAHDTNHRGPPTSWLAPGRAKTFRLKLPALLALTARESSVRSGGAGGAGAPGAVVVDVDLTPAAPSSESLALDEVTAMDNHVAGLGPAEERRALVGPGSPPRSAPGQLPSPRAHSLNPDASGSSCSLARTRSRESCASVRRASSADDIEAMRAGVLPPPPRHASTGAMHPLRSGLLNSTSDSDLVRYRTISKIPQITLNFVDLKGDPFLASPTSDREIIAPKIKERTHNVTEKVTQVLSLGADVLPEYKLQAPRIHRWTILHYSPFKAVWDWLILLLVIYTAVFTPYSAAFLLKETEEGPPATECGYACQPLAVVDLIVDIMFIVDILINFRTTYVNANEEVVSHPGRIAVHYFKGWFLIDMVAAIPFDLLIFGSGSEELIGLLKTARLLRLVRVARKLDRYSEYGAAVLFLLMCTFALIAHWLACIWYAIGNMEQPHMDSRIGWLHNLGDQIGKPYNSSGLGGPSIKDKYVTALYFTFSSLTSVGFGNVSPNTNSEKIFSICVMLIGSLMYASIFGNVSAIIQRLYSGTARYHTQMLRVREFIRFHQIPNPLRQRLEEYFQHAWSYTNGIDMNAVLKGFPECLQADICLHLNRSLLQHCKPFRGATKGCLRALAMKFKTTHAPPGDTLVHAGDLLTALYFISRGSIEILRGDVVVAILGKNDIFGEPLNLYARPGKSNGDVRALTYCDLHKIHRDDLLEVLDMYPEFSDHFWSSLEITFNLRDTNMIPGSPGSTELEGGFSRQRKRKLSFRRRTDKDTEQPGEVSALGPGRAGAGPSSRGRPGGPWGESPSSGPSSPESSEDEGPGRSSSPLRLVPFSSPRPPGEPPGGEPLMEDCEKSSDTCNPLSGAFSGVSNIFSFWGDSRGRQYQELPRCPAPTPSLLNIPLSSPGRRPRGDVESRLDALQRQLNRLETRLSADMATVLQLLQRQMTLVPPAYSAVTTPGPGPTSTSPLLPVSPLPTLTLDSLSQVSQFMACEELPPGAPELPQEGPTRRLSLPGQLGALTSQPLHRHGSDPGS

SMILES: COc1cccc2c(Nc3ccc(C(=O)Nc4ccccc4N)cc3)ncnc12 [Compound V-9, N-(2-aminophenyl)-4-(8-methoxy-quinazoline-4-amino)benzamide]
- inhibition at 10 µM ([1]; 10 μM): -11.9%
- inhibition at 100 µM ([1]; 100 μM): 11.8%
- IC50 ([2]; Homo sapiens): 12.2 µM
- inhibition at 10 µM [2, 12]: 5.1%
- inhibition at 100 µM [2, 13]: 19.3%
- IC50 ([3]; Homo sapiens, A549): 29.9 µM
- inhibition at 10 µM ([3]; Homo sapiens, A549, 10 μM): 24.6%
- inhibition at 100 µM ([3]; Homo sapiens, A549, 100 μM): 42.3%
- half-life [4, 14]: 1.27 h
- bioavailability ([4]; oral): 19%
- half-life [4, 15]: 4.53 h
- inhibition at 1 µM (HDAC1): 33.8%
- inhibition at 10 µM (HDAC1): 58.3%
- IC50 [5]: 19.9 µM
- inhibition at 10 µM ([5]; 10 μM): -2.8%
- inhibition at 100 µM ([5]; 100 μM): 30.3%
- IC50 (HDACs): 4.91 µM
- Inhibition percentage (%) towards HDACs (HDACs; 40 μM): 1.9%
- Inhibition percentage (%) towards HDACs (HDACs; 200 μM): 7.8%
- Inhibition percentage (%) towards HDACs (HDACs; 2 mM): 50.0%
- IC50 ([6]; Homo sapiens, Hep3B): 52.2 µM
- inhibition at 10 µM [6, 16]: 27%
- inhibition at 100 µM [6, 17]: 26.2%
- IC50 ([7]; Homo sapiens, HuT78): 0.231 µM
- inhibition at 10 µM ([7]; Homo sapiens, HuT78): 10.8%
- inhibition at 100 µM ([7]; Homo sapiens, HuT78, 100 μM): 94%
- inhibition at 10 µM ([8]; 10 μM): 22.3%
- inhibition at 100 µM ([8]; 100 μM): 26.4%
- maximum tolerance dose [9]: over 5000 mg/kg
- IC50 ([10]; Homo sapiens, COLO 320): 88.4 µM
- inhibition at 10 µM [10, 18]: 4.4%
- inhibition at 100 µM [10, 19]: 4.2%
- IC50 ([11]; Homo sapiens, Jurkat E6.1): 12.4 µM
- inhibition at 10 µM [11, 20]: 0.9%
- inhibition at 100 µM [11, 21]: 22.8%
- tumor inhibition %, PC-3 (human prostate cancer) (human PC-3 tumors): 36.97%
- deaths, PC-3 model (human PC-3 tumors): no death
- inhibition at 10 µM (hERG potassium channel): 21.5 ± 0.4%
- IC50 (hERG potassium channel): > 10 µM

SMILES: Nc1ccccc1NC(=O)c1ccc(CNc2ncnc3ccccc23)cc1 [Compound V-27, N-(2-aminophenyl)-4-[(quinazoline-4-amino)methyl]benzamide]
- inhibition at 10 µM ([1]; 10 μM): 28.5%
- inhibition at 100 µM ([1]; 100 μM): 76.3%
- inhibition at 10 µM [2, 12]: 43.8%
- inhibition at 100 µM [2, 13]: 59.9%
- IC50 ([3]; Homo sapiens, A549): 3.14 µM
- inhibition at 10 µM ([3]; Homo sapiens, A549, 10 μM): 82.8%
- inhibition at 100 µM ([3]; Homo sapiens, A549, 100 μM): 97.7%
- half-life [4, 14]: 0.95 h
- bioavailability ([4]; oral): 28.6%
- half-life [4, 15]: 3.37 h
- IC50 (HDAC1): 0.212 µM
- inhibition at 1 µM (HDAC1): 58.3%
- inhibition at 10 µM (HDAC1): 83%
- inhibitory activity against HDAC1 compared with MS-275 (HDAC1; both concentrations 10 μM and 1 μM): superior to that of MS-275
- IC50 [5]: 0.437 µM
- inhibition at 10 µM ([5]; 10 μM): 45%
- inhibition at 100 µM ([5]; 100 μM): 75%
- antitumor effect on nude mice xenograft model A549 (human A549 tumors): significantly inhibit the growth of tumor
- mortality and weight loss in nude mice (human A549 tumors): no mortality and significant weight loss
- tumor inhibition %, A549 (lung cancer) (human A549 tumors): 61.83%
- deaths, A549 model (human A549 tumors): no death
- IC50 (HDACs): 1.31 µM
- inhibitory activity according to in vitro IC50 value against HDACs compared with MS-275 (HDACs): better inhibitory activities than MS-275
- Inhibition percentage (%) towards HDACs (HDACs; 40 μM): 73.2%
- Inhibition percentage (%) towards HDACs (HDACs; 200 μM): 82.6%
- Inhibition percentage (%) towards HDACs (HDACs; 2 mM): 91.9%
- inhibitory activity on HDACs compared with MS-275 (HDACs; concentrations of 2 mM, 200 μM, and 40 μM): significantly stronger inhibitory activities than MS-275
- IC50 ([6]; Homo sapiens, Hep3B): 1.52 µM
- inhibition at 10 µM [6, 16]: -12.3%
- inhibition at 100 µM [6, 17]: 68.3%
- IC50 ([7]; Homo sapiens, HuT78): 0.356 µM
- inhibition at 10 µM ([7]; Homo sapiens, HuT78): 69.2%
- inhibition at 100 µM ([7]; Homo sapiens, HuT78, 100 μM): 89.3%
- inhibition at 10 µM ([8]; 10 μM): 44.4%
- inhibition at 100 µM ([8]; 100 μM): 69.5%
- maximum tolerance dose [9]: over 2000 mg/kg
- inhibition at 10 µM [10, 18]: 60%
- inhibition at 100 µM [10, 19]: 82.3%
- IC50 ([11]; Homo sapiens, Jurkat E6.1): 0.458 µM
- inhibition at 10 µM [11, 20]: 31.6%
- inhibition at 100 µM [11, 21]: 87.6%
- inhibition at 10 µM (hERG potassium channel): 29.9 ± 6.7%
- IC50 (hERG potassium channel): > 10 µM

SMILES: Nc1ccccc1NC(=O)c1ccc(CNC(=O)OCc2cccnc2)cc1 [MS-275, reference compound]
- 435s (inhibition %) ([1]; 10 μM): 2.7%
- 435s (inhibition %) ([1]; 100 μM): 59.3%
- IC50 [2]: 0.502 µM
- PC-3 (inhibition %) 10 μM ([2]; PC-3 cell strain, compound at 10 μM, CCK-8 method): 12.5%
- PC-3 (inhibition %) 100 μM ([2]; PC-3 cell strain, compound at 100 μM, CCK-8 method): 71.5%
- IC50 [3]: 2.28 µM
- A549 (inhibition %) ([3]; 10 μM): 58.9%
- A549 (inhibition %) ([3]; 100 μM): 92.3%
- K562 (inhibition %) ([5]; 10 μM): 66.2%
- K562 (inhibition %) ([5]; 100 μM): 74.6%
- tumor inhibition %, A549 (lung cancer) (human A549 tumors): 79.41%
- deaths, A549 model (human A549 tumors): 3
- IC50 (HDACs): 3.52 µM
- Inhibition percentage (%) towards HDACs (HDACs; 40 μM): 32.5%
- Inhibition percentage (%) towards HDACs (HDACs; 200 μM): 60.5%
- Inhibition percentage (%) towards HDACs (HDACs; 2 mM): 82.2%
- IC50 [6]: 6.82 µM
- Hep3B (inhibition %) 10 μM ([6]; Hep3B cell strain, compound at 10 μM, CCK-8 method): 10.8%
- Hep3B (inhibition %) 100 μM ([6]; Hep3B cell strain, compound at 100 μM, CCK-8 method): 52.1%
- IC50 [7]: 0.528 µM
- Hut-78 (inhibition %) ([7]; 100 μM): 85.3%
- PANC-1 (inhibition %) ([8]; 10 μM): 12.4%
- PANC-1 (inhibition %) ([8]; 100 μM): 31.6%
- IC50 [10]: 0.522 µM
- Colo320 (inhibition %) 10 μM ([10]; Colo320 cell strain, compound at 10 μM, CCK-8 method): 18.0%
- Colo320 (inhibition %) 100 μM ([10]; Colo320 cell strain, compound at 100 μM, CCK-8 method): 61.6%
- IC50 [11]: 0.561 µM
- Jurkat E6-1 (inhibition %) ([11]; 10 μM): 89.5%
- Jurkat E6-1 (inhibition %) ([11]; 100 μM): 96.1%
- tumor inhibition %, PC-3 (human prostate cancer) (human PC-3 tumors): 89.60%
- deaths, PC-3 model (human PC-3 tumors): 4
